# Measured values: paper PMC5667507, “A novel ^18F-labelled high affinity agent for PET imaging of the translocator protein” (Chemical Science, 2015)
# Key:
# [1] = system: TSPO; experiment: Dynamic PET scan of a mouse bearing an intracranial U87MG-Luc2 tumour; format: in vivo; conditions: single mouse, 120 min dynamic PET, early portion of the scan
# Experimental: In order to investigate the potential of [^18F]-AB5186 6 as a PET tracer for TSPO a dynamic PET scan was performed using the Albira imaging system (Carestream Molecular Imaging, USA) in a single mouse bearing an intracranial U87MG-Luc2 tumour for 120 min after intravenous administration of the tracer. Postmortem histological examination of the brain collected at the end of the scan was conducted to visualise the anatomical location of the tumour. Following reconstruction, the entire dynamic PET image was manually co-registered to key anatomical structures of the CT (i.e. the spine, the front limbs and the eye sockets). […]
# Fig. 6 Averaged PET images of a U87MG-Luc2 glioma bearing mouse brain following [^18F]-AB5186 injection: (a) 0–40 min averaged, (b) 41–80 min averaged, and (c) 81–120 min averaged; 120 min dynamic scan. […] (f) Tracer kinetics expressed as a ratio of the tumour to contralateral SUVs.
# 20 min the mice were sacrificed by CO2 asphyxiation, the brains were removed and frozen using a Cryospray (Cellpath). […] The film was developed following an overnight incubation at −20 ° C and scanned using a Bio-Rad GS-800 Calibrated Densitometer with the aid the Quantity One Basic (version 4.6.3) software. Quantification was performed using the ImageJ 1.47v software. […]
# [2] = Baseline dynamic PET scan of healthy baboon brain; format: in vivo; conditions: whole brain, 240 min dynamic PET, i.v. bolus
# Experimental: Following PET reconstruction and co-registration to an MRI (Fig. 7a), a time–activity curve for the tracer in the whole brain was established (Fig. 7b). […]
# divided by the animal weight. A secondary spherical VOI was used to define the contralateral kinetics and the tumour to contralateral SUV ratio was calculated as a function of time. […]
# were represented graphically using the GraphPad Prism 6 software (GraphPad Softare Inc).
# 14. Primate PET Methodology
# A baboon (Papio anubis, 21.3 kg) was fasted for up to 12 h prior to imaging. […] Body temperature was maintained using a heated water blanket and monitored by rectal thermometer. Vital signs, including end tidal CO2, SpO2, heart rate, respiration rate and blood pressure, were monitored continuously and recorded at least every 15 min during the study. […]
# generated and SUV determined as the concentration in the VOI divided by the injected dose divided […]
# exception of the samples collected for metabolite analysis (3.5 mL each), all blood samples were 1 mL each. […] After blood collection, all samples were kept on ice until analysed.
# Radioactivity in whole blood and plasma was assessed with a well-type γ-counter using a 400–1400 keV window (Perkin Elmer Wallac 2480, USA). […]
compound,measurement,setting,value
CCN(CC)C(=O)c1nc2ccccc2c(-c2ccccc2)c1C[18F] [[^18F]-AB5186 6],amount of tracer in tumour versus contralateral region (time-activity curve),[1],greater amounts
same,peak standardised uptake value (SUV) in brain,[2],1.67
